The text below walks through data of ChEMBL document CHEMBL1152560, “Substituted 2-arylbenzothiazoles as kinase inhibitors: hit-to-lead optimization” (Bioorg Med Chem, 2009).

Assay [1] deals with Mitogen-activated protein kinase kinase kinase kinase 4 (Homo sapiens) (UniProt O95819). Briefly: Residual activity of MAP4K4 at 1 uM by microplate scintillation counting.
Assay [2] deals with Myosin light chain kinase 2, skeletal/cardiac muscle (Homo sapiens) (UniProt Q9H1R3). Briefly: Residual activity of MYLK2 at 0.1 uM by microplate scintillation counting.
The target of assay [3] is Serine/threonine-protein kinase 16 (Homo sapiens) (UniProt O75716). Briefly: Residual activity of TSF1 at 1 uM by microplate scintillation counting.
Assay [4] has as its target Serine/threonine-protein kinase WNK2 (Homo sapiens) (UniProt Q9Y3S1). Briefly: Residual activity of WNK2 at 1 uM by microplate scintillation counting.
Assay [5] concerns the target Interferon-induced, double-stranded RNA-activated protein kinase (Homo sapiens) (UniProt P19525). Briefly: Residual activity of EIF2AK2 at 10 uM by microplate scintillation counting.
Assay [6] addresses Homeodomain-interacting protein kinase 1 (Homo sapiens) (UniProt Q86Z02). Briefly: Residual activity of HIPK1 at 10 uM by microplate scintillation counting.
The target in assay [7] is Cyclin-dependent kinase 7/ cyclin H (Homo sapiens) (UniProt P51946+P50613). Briefly: Residual activity of CDK7/CyclinH/MAT1 at 10 uM by microplate scintillation counting. The assay is classed as protein-complex assay.
Assay [8] addresses Interferon-induced, double-stranded RNA-activated protein kinase (Homo sapiens) (UniProt P19525). Briefly: Residual activity of EIF2AK2 at 0.1 uM by microplate scintillation counting.
The target in assay [9] is T1, Tyrosine-protein kinase Mer (Homo sapiens) (UniProt Q12866).
T1 sequence (whole entry): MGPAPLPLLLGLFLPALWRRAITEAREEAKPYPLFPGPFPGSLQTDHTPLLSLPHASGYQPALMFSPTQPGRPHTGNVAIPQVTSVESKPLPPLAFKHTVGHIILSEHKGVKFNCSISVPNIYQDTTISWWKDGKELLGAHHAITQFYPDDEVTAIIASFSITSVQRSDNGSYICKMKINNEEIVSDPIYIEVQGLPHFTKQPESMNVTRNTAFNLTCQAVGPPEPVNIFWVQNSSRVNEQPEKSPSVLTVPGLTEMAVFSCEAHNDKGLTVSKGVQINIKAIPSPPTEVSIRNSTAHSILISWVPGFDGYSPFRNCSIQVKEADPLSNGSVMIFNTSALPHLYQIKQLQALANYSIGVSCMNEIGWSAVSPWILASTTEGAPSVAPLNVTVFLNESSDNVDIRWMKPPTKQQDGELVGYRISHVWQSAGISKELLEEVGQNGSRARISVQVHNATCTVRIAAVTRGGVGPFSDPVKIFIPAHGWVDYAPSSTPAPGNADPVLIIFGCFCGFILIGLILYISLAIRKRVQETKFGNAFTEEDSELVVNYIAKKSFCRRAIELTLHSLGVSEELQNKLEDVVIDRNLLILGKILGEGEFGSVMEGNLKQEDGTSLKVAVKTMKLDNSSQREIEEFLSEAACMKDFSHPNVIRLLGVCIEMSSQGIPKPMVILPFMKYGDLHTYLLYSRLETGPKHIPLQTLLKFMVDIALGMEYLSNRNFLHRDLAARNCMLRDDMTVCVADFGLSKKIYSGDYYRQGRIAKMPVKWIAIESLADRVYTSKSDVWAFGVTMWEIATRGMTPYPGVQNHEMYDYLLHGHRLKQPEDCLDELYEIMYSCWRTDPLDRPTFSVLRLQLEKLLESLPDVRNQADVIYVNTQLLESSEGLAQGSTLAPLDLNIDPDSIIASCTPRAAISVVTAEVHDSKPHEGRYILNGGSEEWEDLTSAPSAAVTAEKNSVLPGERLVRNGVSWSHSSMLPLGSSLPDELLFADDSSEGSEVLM
Briefly: Residual activity of MERTK at 10 uM by microplate scintillation counting.

For assay [10], the target named is Protein kinase C delta type (Homo sapiens) (UniProt Q05655). Briefly: Residual activity of PKCdelta at 10 uM by microplate scintillation counting.
Protein kinase C delta type (Homo sapiens), sequence (Q05655 whole entry, looked up): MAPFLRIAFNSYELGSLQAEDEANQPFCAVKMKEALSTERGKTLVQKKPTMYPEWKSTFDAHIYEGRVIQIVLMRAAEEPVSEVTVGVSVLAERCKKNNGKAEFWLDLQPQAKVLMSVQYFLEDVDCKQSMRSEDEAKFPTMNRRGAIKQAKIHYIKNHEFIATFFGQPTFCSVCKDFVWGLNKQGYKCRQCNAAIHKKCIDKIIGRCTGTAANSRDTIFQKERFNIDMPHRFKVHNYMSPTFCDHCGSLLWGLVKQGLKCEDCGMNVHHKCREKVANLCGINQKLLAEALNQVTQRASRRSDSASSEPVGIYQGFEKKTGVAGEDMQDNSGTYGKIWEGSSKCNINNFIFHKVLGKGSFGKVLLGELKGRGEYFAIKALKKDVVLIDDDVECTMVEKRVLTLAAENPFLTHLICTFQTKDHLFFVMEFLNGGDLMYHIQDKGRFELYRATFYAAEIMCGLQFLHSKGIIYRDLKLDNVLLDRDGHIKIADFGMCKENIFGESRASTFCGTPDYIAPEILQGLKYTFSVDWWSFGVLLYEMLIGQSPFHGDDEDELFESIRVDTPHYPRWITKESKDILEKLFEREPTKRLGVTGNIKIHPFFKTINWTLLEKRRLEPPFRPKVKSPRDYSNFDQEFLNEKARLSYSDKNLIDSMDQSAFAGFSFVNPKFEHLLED
In assay [11] the target is T2, Protein kinase C iota type (Homo sapiens) (UniProt P41743).
T2 sequence (whole entry): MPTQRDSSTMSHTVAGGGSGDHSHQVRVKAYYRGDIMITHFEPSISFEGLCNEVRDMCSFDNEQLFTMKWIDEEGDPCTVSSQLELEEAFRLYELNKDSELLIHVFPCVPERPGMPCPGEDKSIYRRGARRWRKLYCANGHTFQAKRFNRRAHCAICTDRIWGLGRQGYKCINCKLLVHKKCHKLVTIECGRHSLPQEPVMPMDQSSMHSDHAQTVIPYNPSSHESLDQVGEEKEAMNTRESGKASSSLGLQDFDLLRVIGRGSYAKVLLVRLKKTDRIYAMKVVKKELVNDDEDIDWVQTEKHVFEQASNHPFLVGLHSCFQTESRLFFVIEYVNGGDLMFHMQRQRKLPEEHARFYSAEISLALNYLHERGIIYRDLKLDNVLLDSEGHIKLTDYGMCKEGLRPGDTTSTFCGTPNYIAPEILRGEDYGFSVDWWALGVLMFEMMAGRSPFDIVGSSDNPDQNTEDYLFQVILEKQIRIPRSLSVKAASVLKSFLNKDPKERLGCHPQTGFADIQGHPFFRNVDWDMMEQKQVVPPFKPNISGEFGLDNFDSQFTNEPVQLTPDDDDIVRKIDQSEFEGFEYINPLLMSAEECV
Briefly: Residual activity of PKCiota at 10 uM by microplate scintillation counting.

The target of assay [12] is Tyrosine-protein kinase ABL1 (Homo sapiens) (UniProt P00519). Briefly: Residual activity of wild type ABL1 at 0.1 uM by microplate scintillation counting.
Tyrosine-protein kinase ABL1 (Homo sapiens), sequence (P00519 whole entry, canonical isoform): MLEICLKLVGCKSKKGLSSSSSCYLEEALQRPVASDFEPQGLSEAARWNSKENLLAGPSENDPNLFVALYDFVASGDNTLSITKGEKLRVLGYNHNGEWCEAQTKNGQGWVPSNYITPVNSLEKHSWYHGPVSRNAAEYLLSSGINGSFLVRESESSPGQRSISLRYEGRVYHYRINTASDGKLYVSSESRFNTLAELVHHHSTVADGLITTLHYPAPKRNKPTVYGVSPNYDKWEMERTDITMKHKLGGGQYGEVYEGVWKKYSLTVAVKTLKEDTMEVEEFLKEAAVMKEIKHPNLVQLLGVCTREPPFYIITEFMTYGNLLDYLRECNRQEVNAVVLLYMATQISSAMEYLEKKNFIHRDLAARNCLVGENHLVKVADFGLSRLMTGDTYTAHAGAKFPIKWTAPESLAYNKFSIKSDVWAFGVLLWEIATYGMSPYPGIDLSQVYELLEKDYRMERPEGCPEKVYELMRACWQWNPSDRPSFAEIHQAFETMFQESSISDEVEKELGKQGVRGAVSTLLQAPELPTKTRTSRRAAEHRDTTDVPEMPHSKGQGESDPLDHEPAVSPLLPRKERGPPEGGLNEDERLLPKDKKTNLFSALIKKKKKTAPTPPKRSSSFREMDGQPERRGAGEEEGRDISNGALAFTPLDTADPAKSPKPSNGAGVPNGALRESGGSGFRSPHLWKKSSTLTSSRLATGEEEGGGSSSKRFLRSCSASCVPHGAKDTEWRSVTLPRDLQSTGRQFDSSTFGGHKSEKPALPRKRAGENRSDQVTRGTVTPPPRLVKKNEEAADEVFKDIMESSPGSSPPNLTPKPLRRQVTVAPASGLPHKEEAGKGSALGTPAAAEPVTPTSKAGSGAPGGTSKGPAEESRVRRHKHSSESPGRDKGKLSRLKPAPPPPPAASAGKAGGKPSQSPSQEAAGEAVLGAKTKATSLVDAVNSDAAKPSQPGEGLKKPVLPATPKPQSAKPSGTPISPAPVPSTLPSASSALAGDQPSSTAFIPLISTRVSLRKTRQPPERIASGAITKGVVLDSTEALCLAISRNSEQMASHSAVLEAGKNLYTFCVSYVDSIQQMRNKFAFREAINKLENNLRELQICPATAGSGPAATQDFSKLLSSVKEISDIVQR
Assay [13] has as its target Casein kinase I isoform gamma-1 (Homo sapiens) (UniProt Q9HCP0). Briefly: Residual activity of CK1gamma1 at 0.1 uM by microplate scintillation counting.

Homeodomain-interacting protein kinase 1 (Homo sapiens), sequence (Q86Z02 whole entry, looked up): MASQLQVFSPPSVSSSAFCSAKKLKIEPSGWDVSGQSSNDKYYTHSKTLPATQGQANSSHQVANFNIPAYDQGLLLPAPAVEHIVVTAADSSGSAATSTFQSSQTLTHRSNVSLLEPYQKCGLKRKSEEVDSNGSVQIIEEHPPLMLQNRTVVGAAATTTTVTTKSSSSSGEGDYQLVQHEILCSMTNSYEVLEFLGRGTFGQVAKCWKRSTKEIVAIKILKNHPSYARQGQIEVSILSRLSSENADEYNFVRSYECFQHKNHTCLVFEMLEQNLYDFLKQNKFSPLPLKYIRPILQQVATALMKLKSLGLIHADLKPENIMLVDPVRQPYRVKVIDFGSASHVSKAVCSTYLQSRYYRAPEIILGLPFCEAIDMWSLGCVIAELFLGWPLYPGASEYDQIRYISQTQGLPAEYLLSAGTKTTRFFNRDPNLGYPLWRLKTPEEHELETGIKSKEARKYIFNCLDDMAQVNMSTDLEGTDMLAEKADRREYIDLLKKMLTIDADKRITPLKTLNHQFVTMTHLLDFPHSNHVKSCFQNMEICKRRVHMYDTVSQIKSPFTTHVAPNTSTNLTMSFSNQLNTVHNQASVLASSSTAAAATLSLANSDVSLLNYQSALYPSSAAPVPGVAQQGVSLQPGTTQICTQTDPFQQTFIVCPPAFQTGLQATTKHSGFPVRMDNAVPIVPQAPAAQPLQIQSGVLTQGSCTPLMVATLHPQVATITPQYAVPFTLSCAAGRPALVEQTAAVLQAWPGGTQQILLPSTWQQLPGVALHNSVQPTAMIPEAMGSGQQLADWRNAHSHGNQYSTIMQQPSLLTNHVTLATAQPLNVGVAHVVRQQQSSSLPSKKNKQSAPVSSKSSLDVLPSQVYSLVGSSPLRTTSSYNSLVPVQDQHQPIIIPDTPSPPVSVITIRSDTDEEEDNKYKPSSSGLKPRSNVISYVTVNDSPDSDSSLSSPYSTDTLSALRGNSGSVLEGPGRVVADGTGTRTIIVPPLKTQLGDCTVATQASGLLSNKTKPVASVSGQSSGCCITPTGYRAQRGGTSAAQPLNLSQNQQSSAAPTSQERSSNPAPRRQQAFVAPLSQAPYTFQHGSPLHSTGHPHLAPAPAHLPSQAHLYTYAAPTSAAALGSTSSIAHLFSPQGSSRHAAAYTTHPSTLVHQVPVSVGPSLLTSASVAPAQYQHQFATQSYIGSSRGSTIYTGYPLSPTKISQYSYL
Mitogen-activated protein kinase kinase kinase kinase 4 (Homo sapiens), sequence (O95819 2-1239 limits assumed): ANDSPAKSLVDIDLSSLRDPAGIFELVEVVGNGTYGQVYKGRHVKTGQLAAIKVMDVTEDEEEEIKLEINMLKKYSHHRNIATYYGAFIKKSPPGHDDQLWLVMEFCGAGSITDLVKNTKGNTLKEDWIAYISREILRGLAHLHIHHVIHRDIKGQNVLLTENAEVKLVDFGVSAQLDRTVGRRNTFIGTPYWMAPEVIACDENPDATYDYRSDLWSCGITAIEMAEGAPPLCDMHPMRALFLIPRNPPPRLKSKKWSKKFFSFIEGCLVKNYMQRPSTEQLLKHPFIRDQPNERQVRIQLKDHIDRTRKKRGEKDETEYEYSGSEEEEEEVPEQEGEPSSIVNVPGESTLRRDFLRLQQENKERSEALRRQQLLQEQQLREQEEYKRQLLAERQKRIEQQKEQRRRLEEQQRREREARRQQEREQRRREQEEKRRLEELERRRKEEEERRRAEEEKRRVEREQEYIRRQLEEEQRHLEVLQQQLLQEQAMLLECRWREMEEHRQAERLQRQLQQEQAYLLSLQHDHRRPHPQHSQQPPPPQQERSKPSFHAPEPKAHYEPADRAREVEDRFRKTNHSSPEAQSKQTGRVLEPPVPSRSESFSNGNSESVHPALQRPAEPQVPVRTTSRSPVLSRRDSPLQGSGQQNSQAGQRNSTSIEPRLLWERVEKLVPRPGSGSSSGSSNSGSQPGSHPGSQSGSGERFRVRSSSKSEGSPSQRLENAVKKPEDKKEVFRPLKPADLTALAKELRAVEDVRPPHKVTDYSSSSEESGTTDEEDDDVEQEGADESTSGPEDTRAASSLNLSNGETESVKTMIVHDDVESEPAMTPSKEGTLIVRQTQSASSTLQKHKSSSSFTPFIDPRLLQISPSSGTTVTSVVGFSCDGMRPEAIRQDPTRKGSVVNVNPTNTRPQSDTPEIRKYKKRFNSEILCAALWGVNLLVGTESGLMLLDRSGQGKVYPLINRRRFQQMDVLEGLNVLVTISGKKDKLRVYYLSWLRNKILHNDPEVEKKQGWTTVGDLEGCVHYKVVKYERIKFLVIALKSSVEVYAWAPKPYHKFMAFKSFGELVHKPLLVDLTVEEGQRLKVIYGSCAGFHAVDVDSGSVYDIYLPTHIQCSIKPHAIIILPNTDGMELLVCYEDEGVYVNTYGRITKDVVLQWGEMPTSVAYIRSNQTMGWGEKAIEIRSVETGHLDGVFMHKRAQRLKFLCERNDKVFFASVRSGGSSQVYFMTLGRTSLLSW
Interferon-induced, double-stranded RNA-activated protein kinase (Homo sapiens), sequence (P19525 whole entry): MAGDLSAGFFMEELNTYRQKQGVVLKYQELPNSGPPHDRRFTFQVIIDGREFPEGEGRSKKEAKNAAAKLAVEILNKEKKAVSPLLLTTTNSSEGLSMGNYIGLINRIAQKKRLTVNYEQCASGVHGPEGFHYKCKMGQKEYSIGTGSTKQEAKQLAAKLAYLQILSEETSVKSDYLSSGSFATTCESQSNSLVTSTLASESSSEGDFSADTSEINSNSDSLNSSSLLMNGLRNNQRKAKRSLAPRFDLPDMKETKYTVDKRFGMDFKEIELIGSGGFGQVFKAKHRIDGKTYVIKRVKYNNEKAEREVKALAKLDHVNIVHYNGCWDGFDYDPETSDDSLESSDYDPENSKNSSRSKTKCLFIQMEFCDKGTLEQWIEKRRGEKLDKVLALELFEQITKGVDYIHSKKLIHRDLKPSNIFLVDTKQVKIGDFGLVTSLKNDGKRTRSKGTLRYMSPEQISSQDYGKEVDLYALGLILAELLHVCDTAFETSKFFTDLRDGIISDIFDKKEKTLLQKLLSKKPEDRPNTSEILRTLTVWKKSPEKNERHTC

Turning to `COc1cc2c(Oc3ccc(-c4nc5ccccc5s4)cc3F)ncnc2cc1OCCCN1CCN(C)CC1`, the residual activity was determined as 97% in [1]; 93% in assay [2]; 96% in [3]; 53% in assay [4]; 28% in assay [5]; 142% in [6]. Moreover, the residual activity in assay [7] was determined as 138%; in assay [8], 95%; in assay [9], 2%; in assay [10], 86%; in [11], 46%; in assay [12] it was 100%. Moreover, the residual activity in assay [13] came to 100%.
As for `COc1cc2c(Oc3ccc(-c4nc5ccccc5s4)cc3)ncnc2cc1OCCCN1CCN(C)CC1`, the residual activity in assay [1] was determined as 81%; in assay [2], 83%; in assay [3], 90%; in [4], 25%; in assay [5] it was 21%; in assay [6], 132%. For the same compound, the residual activity in assay [7] was 130%; in assay [8], 70%; in [9], 3%; in assay [10], 86%; in assay [11], 44%; in assay [12], 94%. Further, the residual activity in assay [13] came to 102%.
In the case of `COc1cc2c(Oc3ccc(-c4nc5ccccc5s4)cc3)ncnc2cc1OCCCN1CCCC1`, the residual activity in assay [1] worked out at 88%; in [2], 33%; in assay [3], 87%; in [4] it was 34%; in assay [5], 27%; in assay [6], 103%. For the same compound, the residual activity in assay [7] was 116%; in assay [8], 82%; in [9] it was 1%; in assay [10] it was 72%; in assay [11] it was 51%; in assay [12], 97%. Further, the residual activity in assay [13] stood at 84%.
